By EC50 is commonly meant the concentration that produces a half-maximal response.

Test [1] is described as follows: Inhibition of HCV genotype 2a NS5B polymerase infected in human HuH7 replicon cells by luciferase reporter gene assay. (In general: A replicon is a self-replicating genome or part of one, used to study replication in cells.)
A short description of test [2]: Inhibition of HCV genotype 4a NS5B polymerase infected in human HuH7 replicon cells by luciferase reporter gene assay.
Test [3] is described as follows: Inhibition of HCV genotype 1a NS5A polymerase infected in human HuH7 replicon cells by luciferase reporter gene assay.
A short description of test [4]: Inhibition of HCV genotype 1b NS5B polymerase infected in human HuH7 replicon cells by luciferase reporter gene assay.
A short description of test [5]: Inhibition of HCV genotype 3a NS5B polymerase infected in human HuH7 replicon cells by luciferase reporter gene assay.
The nature of test [6]: Inhibition of NS5B polymerase in HCV genotype 1b infected human HuH7 replicon cells assessed as reduction in viral RNA level after 3 days by RT-PCR assay.

With `CNC(=O)c1c(-c2ccc(F)cc2)oc2cc3c(cc12)[C@H](C)O[C@H](CO)CN3S(C)(=O)=O`, the EC50 is 0.012 µM in test [1]; 0.009 µM in test [2]; 0.009 µM in test [3]; 0.003 µM in test [4]; 0.006 µM in test [5].
Consider `CNC(=O)c1c(-c2ccc(F)cc2)oc2cc3c(cc12)C(C)OCC(CS(C)(=O)=O)N3S(C)(=O)=O` (stereo unspecified), for which the half-maximal effective concentration (EC50) in test [1] was 0.134 µM; in test [2], 0.051 µM; in test [3] it was 0.016 µM; in test [4] it was 0.019 µM; in test [5], 0.07 µM.
For `CNC(=O)c1c(-c2ccc(F)cc2)oc2cc3c(cc12)C(C)OCC(CO)N3S(C)(=O)=O` (stereo unspecified), the EC50 is 0.141 µM in test [1]; 0.117 µM in test [2]; 0.04 µM in test [3]; 0.033 µM in test [4]; 0.053 µM in test [5].
`CNC(=O)c1c(-c2ccc(F)cc2)oc2cc3c(cc12)[C@H](C)O[C@H](CS(C)(=O)=O)CN3S(C)(=O)=O`: the EC50 in test [1] was 0.018 µM; in test [2], 0.007 µM; in test [3], 0.004 µM; in test [4] it was 0.003 µM; in test [5] it was 0.01 µM.
Consider `CNC(=O)c1c(-c2ccc(F)cc2)oc2cc3c(cc12)C(C)OC(CS(C)(=O)=O)CN3S(C)(=O)=O` (stereo unspecified), for which the EC50 turned out to be 0.064 µM in test [1]; 0.017 µM in test [2]; 0.009 µM in test [3]; 0.007 µM in test [4]; 0.017 µM in test [5].
Turning to `CNC(=O)c1c(-c2ccc(F)cc2)oc2cc3c(cc12)C(C)OC(CO)CN3S(C)(=O)=O` (stereo unspecified), the EC50 in test [1] was determined as 0.062 µM; in test [2] it was 0.032 µM; in test [3], 0.052 µM; in test [4], 0.012 µM; in test [5], 0.02 µM.
As for `CNC(=O)c1c(-c2ccc(F)cc2)oc2cc(N(CCO)S(C)(=O)=O)c(C3CC3)cc12` [HCV 796], the EC50 in test [1] amounted to 0.072 µM; in test [2] it was 0.021 µM; in test [3], 0.024 µM; in test [4] it was 0.012 µM; in test [5] it was 0.019 µM; in test [6], 0.009 µM.

For the origin of these results see BindingDB's records for doi:10.1016/j.bmcl.2018.01.029 (Presidio Pharmaceuticals, 2018).
